Values after ≈ are worked out from the molar mass of the structure shown.
Columns and labels:
[1] = Solubility of the compound in double distilled water measured upto 30 mins by UV-vis spectrophotometry; format: physicochemical
HCT-116 = test: Antiproliferative activity against human HCT116 cells measured after 72 hrs by CCK-8 cells; format: functional, cell-based; conditions: HCT-116, 72 h
A549 = test: Antiproliferative activity against human A549 cells measured after 72 hrs by CCK-8 cells; format: functional, cell-based; conditions: A549, 72 h
U-87 MG = test: Antiproliferative activity against human U-87 MG cells measured after 72 hrs by CCK-8 cells; format: functional, cell-based, U-87MG ATCC

Row | SMILES | solubility at 0.5 h [1] [µg/mL] | IC50 (HCT-116) [nM] | IC50 (A549) [nM] | IC50 (U-87 MG) [nM]
1 | CN1c2ccc(F)cc2C(=O)N2CCc3c([nH]c4ccc(OC(=O)CCC(=O)NCCCO[C@@H]5O[C@H](CO)[C@@H](O)[C@H](O)[C@H]5O)cc34)[C@H]21 | 1990 (≈ 3.03 mM) | 49 | 49 | 49
2 | CN1c2ccc(F)cc2C(=O)N2CCc3c([nH]c4ccc(OC(=O)CCCC(=O)NCCCO[C@@H]5O[C@H](CO)[C@@H](O)[C@H](O)[C@H]5O)cc34)[C@H]21 | 2470 (≈ 3.68 mM) | 54 | 54 | 54

— ChEMBL document CHEMBL5543158, “Design of Evodiamine-Glucose Conjugates with Improved In Vivo Antitumor Activity” (J Med Chem, 2024)
